Source: patent US11666575B2, “Pyrazolo[1,5]pyrimidine-based compounds and methods of their use to treat viral infections” (Lexicon Pharmaceuticals, Inc., priority 2020, dated 2023)
Values joined by “and” are separate entries in the source; they are usually repeats but may differ in a detail not shown here. Equal entries are not always repeated. Structures can show the parent of a compound that is named as a salt. Where two headings read alike, the source gives them in different places.

Key:
in vitro [1] = conditions: human
[2] = system: alpha coronavirus 229E (CoV-229E); assay: Inhibition of CoV-229E-induced CPE in MRC-5 cells (XTT); conditions: CPE reduction, CoV-229E in MRC-5 cells, 6 days
H292 cells (NCI-H292) = assay: Cytotoxicity in uninfected H292 cells (MTT); conditions: for Cytotoxicity: CC50, uninfected H292 cells, MTT, 6 days
[3] = system: HCoV-OC43 (Betacoronavirus 1); assay: microbe, parasite or virus in culture; format: cell-based; conditions: for EC50: read-out: Efficacy
in vitro [4] = conditions: human; remark: listed apart in the source
HCoV-OC43 = assay: OC43 CPE assay in Huh-7 cells (neutral red uptake); format: cell-based, Human coronavirus OC43; conditions: for Raw OD - Absorbance 490 nm: infected Huh-7, neutral red uptake, individual replicate; for EC50: Betacoronavirus 1, OC43, 144 h, 6 days, neutral red uptake
Huh-7 cells = assay: Cytotoxicity / viability of uninfected Huh-7 cells (XTT); conditions: 6 days, XTT, individual raw data
[5] = Betacoronavirus 1, OC43, Huh-7, 0.01 μM, average ± SD of duplicates, read-out: Inhibition of OC43 Virus-Induced CPE in Huh-7 Cells
[6] = Betacoronavirus 1, OC43, Huh-7, 0.04 μM, average ± SD of duplicates, read-out: Inhibition of OC43 Virus-Induced CPE in Huh-7 Cells
[7] = Betacoronavirus 1, OC43, Huh-7, 0.12 μM, average ± SD of duplicates, read-out: Inhibition of OC43 Virus-Induced CPE in Huh-7 Cells
[8] = Betacoronavirus 1, OC43, Huh-7, 0.4 μM, average ± SD of duplicates, read-out: Inhibition of OC43 Virus-Induced CPE in Huh-7 Cells
[9] = Betacoronavirus 1, OC43, Huh-7, 1.1 μM, average ± SD of duplicates, read-out: Inhibition of OC43 Virus-Induced CPE in Huh-7 Cells
[10] = Betacoronavirus 1, OC43, Huh-7, 10 μM, average ± SD of duplicates, read-out: Inhibition of OC43 Virus-Induced CPE in Huh-7 Cells
[11] = Betacoronavirus 1, OC43, Huh-7, 30 μM, average ± SD of duplicates, read-out: Inhibition of OC43 Virus-Induced CPE in Huh-7 Cells

Work on `CCC(CC)COC(=O)[C@H](C)N[P@](=O)(OC[C@H]1O[C@@](C#N)(c2ccc3c(N)ncnn23)[C@H](O)[C@@H]1O)Oc1ccccc1` [Remdesivir] yielded a CC50 at 6 days (in vitro [1]) greater than 2000 nM, an EC50 [2] of 130 nM and a Cytotoxicity (H292 cells (NCI-H292)) greater than 20 µM. The EC50 ([3]; Betacoronavirus 1, OC43, NCI-H292, 144 h) was 37.5 µM.
With `COc1ncccc1-c1cnn2ccc(N3CCN(C(=O)OC4(C)COC4)CC3)nc12` [Compound 1, 3-methyloxetan-3-yl-4-(3-(2-methoxypyridin-3-yl)pyrazolo[1,5-a]pyrimidin-5-yl)piperazine-1-carboxylate] the viability at 6 days, 0.01 µM (in vitro [4]) was 96.9 ± 0.8%, the viability at 6 days, 0.04 µM (in vitro [4]) was 100.4 ± 0.7% and the viability at 6 days, 0.12 µM (in vitro [4]) was 91.4 ± 1.8%. For the same compound, the viability at 6 days, 0.37 µM (in vitro [4]) was 88.8 ± 2.2%, the viability at 6 days, 1.1 µM (in vitro [4]) was 104 ± 2.9% and the viability at 6 days, 3.3 µM (in vitro [4]) was 113 ± 4.4%. It also gave a viability at 6 days, 10 µM (in vitro [4]) of 117 ± 4.5%, a viability at 6 days, 30 µM (in vitro [4]) of 111 ± 5.3% and a viability at 6 days, 90 µM (in vitro [4]) of 57.1 ± 4.9%. The EC50 [2] was greater than 10000 nM, the “Raw OD - Absorbance 490 nm” value (HCoV-OC43; 0.01 μM, listed as Compd. 1) was 0.102 and 0.108 and the “Raw OD - Absorbance 490 nm” value (HCoV-OC43; 0.04 μM, listed as Compd. 1) was 0.100 and 0.097. For the same compound, the “Raw OD - Absorbance 490 nm” value (HCoV-OC43; 0.12 μM, listed as Compd. 1) was 0.092 and 0.094, the “Raw OD - Absorbance 490 nm” value (HCoV-OC43; 0.4 μM, listed as Compd. 1) was 0.087 and 0.096 and the “Raw OD - Absorbance 490 nm” value (HCoV-OC43; 1.1 μM, listed as Compd. 1) was 0.102 and 0.104. For the same compound, the “Raw OD - Absorbance 490 nm” value (HCoV-OC43; 3.3 μM, listed as Compd. 1) was 0.105 and 0.103, the “Raw OD - Absorbance 490 nm” value (HCoV-OC43; 10 μM, listed as Compd. 1) was 0.115 and 0.117 and the “antiviral effect at 30 μM” value (HCoV-OC43; 30 μM, Huh-7 cells, likely due to compound-induced toxicity) was “disappeared”. For the same compound, the “Raw OD - Absorbance 490 nm” value (HCoV-OC43; 30 μM, listed as Compd. 1) was 0.076 and 0.072, the EC50 (HCoV-OC43; Huh-7 cells) was greater than 30 µM and the inhibition at 0.01 µM (HCoV-OC43; [5]) was -0.2 ± 0.6%. The inhibition at 0.04 µM (HCoV-OC43; [6]) was -0.8 ± 0.4%, the inhibition at 0.12 µM (HCoV-OC43; [7]) was -1.7 ± 0.2% and the inhibition at 0.4 µM (HCoV-OC43; [8]) was -1.9 ± 0.8%. The inhibition at 1.1 µM (HCoV-OC43; [9]) was -0.2 ± 0.2%, the inhibition at 3.3 µM (HCoV-OC43; Betacoronavirus 1, OC43, Huh-7, 3.3 μM, average ± SD of duplicates, read-out: Inhibition of OC43 Virus-Induced CPE in Huh-7 Cells) was 0% and the inhibition at 10 µM (HCoV-OC43; [10]) was 1.8 ± 0.3%. For the same compound, the inhibition at 30 µM (HCoV-OC43; [11]) was -4.5 ± 0.5%, the “Viability of Huh-7 Cells (A490)” value (Huh-7 cells; 0.01 μM, listed as Compd. 1) was 0.724 and 0.716 and the “Viability of Huh-7 Cells (A490)” value (Huh-7 cells; 0.04 μM, listed as Compd. 1) was 0.748 and 0.941. For the same compound, the “Viability of Huh-7 Cells (A490)” value (Huh-7 cells; 0.12 μM, listed as Compd. 1) was 0.673 and 0.691, the “Viability of Huh-7 Cells (A490)” value (Huh-7 cells; 0.37 μM, listed as Compd. 1) was 0.675 and 0.654 and the “Viability of Huh-7 Cells (A490)” value (Huh-7 cells; 1.1 μM, listed as Compd. 1) was 0.758 and 0.786. For the same compound, the “Viability of Huh-7 Cells (A490)” value (Huh-7 cells; 3.3 μM, listed as Compd. 1) was 0.807 and 0.850, the “Viability of Huh-7 Cells (A490)” value (Huh-7 cells; 10 μM, listed as Compd. 1) was 0.878 and 0.834 and the “Viability of Huh-7 Cells (A490)” value (Huh-7 cells; 30 μM, listed as Compd. 1) was 0.844 and 0.792. For the same compound, the “Viability of Huh-7 Cells (A490)” value (Huh-7 cells; 90 μM, listed as Compd. 1) was 0.421 and 0.469, the Cytotoxicity (H292 cells (NCI-H292)) was greater than 300 µM and the “viability of uninfected H292 cells” value (H292 cells (NCI-H292); with increased concentrations, FIG. 6) was “did not change significantly”. For the same compound, the EC50 ([3]; Betacoronavirus 1, NCI-H292, 144 h, EC50, HCoV-OC43-infected H292 cells, MTT, 6 days) was 9.31 µM, the “antiviral effect against β-coronavirus OC43 in H292 cells” value ([3]; H292 cells, 6 days) was “significant antiviral effect” and the “viability of infected H292 cells” value ([3]; HCoV-OC43 infected, FIG. 6) was “increased with increased concentrations”.
`CCN(CC)CCNC(=O)c1c(C)[nH]c(/C=C2\C(=O)Nc3ccc(F)cc32)c1C` [Sunitinib maleate, sunitinib malate] gave a CC50 at 6 days (in vitro [4]) of 13 µM, a viability at 6 days, 0.01 µM (in vitro [4]) of 92 ± 7.2% and a viability at 6 days, 0.04 µM (in vitro [4]) of 100 ± 1.3%. The viability at 6 days, 0.12 µM (in vitro [4]) was 99.1 ± 3.4%, the viability at 6 days, 0.37 µM (in vitro [4]) was 101 ± 3.4% and the viability at 6 days, 1.1 µM (in vitro [4]) was 89.7 ± 1.1%. For the same compound, the viability at 6 days, 3.3 µM (in vitro [4]) was 82.6 ± 4.2%, the viability at 6 days, 10 µM (in vitro [4]) was 72 ± 1.1% and the viability at 6 days, 30 µM (in vitro [4]) was 0.8 ± 0.3%. The viability at 6 days, 90 µM (in vitro [4]) was 0.4 ± 0.1%, the “Raw OD - Absorbance 490 nm” value (HCoV-OC43; 0.01 μM) was 0.120 and the “Raw OD - Absorbance 490 nm” value (HCoV-OC43; 0.04 μM) was 0.094. For the same compound, the “Raw OD - Absorbance 490 nm” value (HCoV-OC43; 0.4 μM) was 0.086 and 0.090, the “Raw OD - Absorbance 490 nm” value (HCoV-OC43; 1.1 μM) was 0.094 and the “Raw OD - Absorbance 490 nm” value (HCoV-OC43; 3.3 μM) was 0.312 and 0.136. The “Raw OD - Absorbance 490 nm” value (HCoV-OC43; 10 μM) was 0.214 and 0.280, the “Raw OD - Absorbance 490 nm” value (HCoV-OC43; 30 μM) was 0.051 and 0.053 and the EC50 (HCoV-OC43; Huh-7 cells) was greater than 30 µM. It also gave an inhibition at 3.3 µM (HCoV-OC43; Betacoronavirus 1, OC43, Huh-7, read-out: Inhibition of OC43 Virus-Induced CPE in Huh-7 Cells) of 17.9 ± 18.5%, an inhibition at 0.01 µM (HCoV-OC43; [5]) of 1.1 ± 1.9% and an inhibition at 0.04 µM (HCoV-OC43; [6]) of -1.2 ± 0.4%. For the same compound, the inhibition at 0.12 µM (HCoV-OC43; [7]) was -0.1 ± 0.4%, the inhibition at 0.4 µM (HCoV-OC43; [8]) was -2.4 ± 0.4% and the inhibition at 1.1 µM (HCoV-OC43; [9]) was -1 ± 0.8%. For the same compound, the inhibition at 10 µM (HCoV-OC43; [10]) was 21.4 ± 7%, the inhibition at 30 µM (HCoV-OC43; [11]) was -7.8 ± 0.2% and the “Viability of Huh-7 Cells (A490)” value (Huh-7 cells; 0.01 μM) was 0.721 and 0.651. The “Viability of Huh-7 Cells (A490)” value (Huh-7 cells; 0.04 μM) was 0.738 and 0.751, the “Viability of Huh-7 Cells (A490)” value (Huh-7 cells; 0.12 μM) was 0.719 and 0.752 and the “Viability of Huh-7 Cells (A490)” value (Huh-7 cells; 0.37 μM) was 0.732 and 0.765. The “Viability of Huh-7 Cells (A490)” value (Huh-7 cells; 1.1 μM) was 0.676 and 0.665, the “Viability of Huh-7 Cells (A490)” value (Huh-7 cells; 3.3 μM) was 0.642 and 0.601 and the “Viability of Huh-7 Cells (A490)” value (Huh-7 cells; 10 μM) was 0.543 and 0.554. The “Viability of Huh-7 Cells (A490)” value (Huh-7 cells; 30 μM) was 0.058 and 0.055 and the “Viability of Huh-7 Cells (A490)” value (Huh-7 cells; 90 μM) was 0.053 and 0.054.
